The values that follow come from US20040176316A1, “Compounds for the normalization of the sleep/wake cycle” (priority 2002, published 2004).

“Also recorded” adds a separate entry of the source. Read-outs that look alike come from different tables or passages of the source.

One series has as its system human subjects. The experiment in a line: Effects of citicoline on sleep quality and mood, rated by subjects on a 10 point scale (FIG. 1). Format: in vivo. The text has this: FIG. 1 is a graph of the effects of citicoline on sleep quality and mood. […] The quality of sleep is improved, and the sleep/wake cycle is normalized after 2-4 weeks of citicoline treatment. This normalization of the sleep/wake cycle may further promote increased wakefulness or reduce fatigue or tiredness during the day. The administration of citicoline will also likely stabilize the homeostatic processes involved in sleep disorders such as insomnia, sleep apneas (central or obstructive), problem sleepiness, restless leg syndrome, periodic limb movements, and narcolepsy. In addition, citicoline may increase cognitive functioning (Alvarez et al. Methods Find Exp Clin Pharmacol 21:633-44, 1999; Fioravanti et al. Cochrane Database Syst. Rev. 4: CD000269, 2000) and may be used to increase cognitive performance in individuals in a sleep-deprived state, e.g., pilots, physicians, students, or others who may experience long periods without sleep.

In another series the test system is cocaine user. The experiment in a line: Level of activity as a function of time of day in a cocaine user without and with CDP-choline treatment (FIGS. 2A and 2B). Format: in vivo. The text has this: FIGS. 2A and 2B are graphs of level of activity as a function of time of day without (A) and with (B) citicoline treatment. A, B, and C refer to use of alcohol, caffeine, and cocaine, respectively. The numbers indicate a craving for cocaine, based on a 10 point scale. Gray dots indicate ingestion of citicoline.
CDP-choline and related compounds are also useful in the treatment of substance abuse disorders, such as alcohol, cocaine, opiate, opioid, nicotine, or tobacco usage or dependence (U.S. Pat. Nos. 5,958,896 and 6,103,703 and U.S. Provisional Application No. 60/424,972, filed Nov. 8, 2002). Since substance abuse disorders may cause a disruption in the quality of sleep or the sleep/wake cycle, the methods of the invention may be used to normalize the sleep/wake cycle or treat sleep disorders in patients with a substance abuse disorder. In addition, a substance abuse disorder and an abnormal sleep/wake cycle or sleep disorder may be treated simultaneously with the methods described herein. FIGS. 2A and 2B show data on the level of activity of a cocaine user for five days without treatment (FIG. 2A) and for 5 days after treatment with CDP-choline (FIG. 2B, monitoring began 4 days after treatment). […] In addition, the subject's use of cocaine (denoted by C) was eliminated with treatment, and the use of alcohol (denoted by A) was reduced.

For series [1] the following is noted: cited from earlier work.
The conditions of series [2]: cited from earlier work. This is another data set of the same source.
The conditions of series [3]: cited from earlier work. The source holds these as a separate data set.
The mark [4] stands for this setting: after 2-4 weeks of citicoline treatment.
Setting [5] is: human subjects, measured by the subjects on a 10 point scale, compared to placebo (FIG. 1).

`C[N+](C)(C)CCOP(=O)(O)OP(=O)([O-])OC[C@H]1O[C@@H](n2ccc(N)nc2=O)[C@H](O)[C@@H]1O` [CDP-choline, cytidine 5′-diphosphocholine]: in the series on human subjects (setting [4]), the quality of sleep result is given as “improved” and the sleep/wake cycle entry is “normalized”. Further, in the series with human subjects (setting [5]), the mood result was “increases” and the quality of sleep result was “increases”. The sleep/wake cycle result in the series on cocaine user (5 days of monitoring that began 4 days after treatment, vs five days without treatment) is listed as “normalized to a diurnal pattern”. In addition, the “cravings for cocaine (10 point scale)” value with cocaine user (after treatment) is on record as “reduced in intensity”. Moreover, the “level of activity during the day” value in the series on cocaine user (after treatment vs without treatment) is “more active during the day”. Further, in the series with cocaine user (with treatment), the use of alcohol result is listed as “reduced” and the use of cocaine entry was “eliminated”. For the same molecule, the “metabolic conversion after administration” value in series [1] (administered either orally or intravenously) was “rapidly metabolized to cytidine and choline; also recorded: rapidly converted into the two major circulating metabolites, choline and cytidine”. Also, in series [1] (orally administered), the “CDP-choline and/or its metabolites absorbed” value is “more than 99%” and the excreted in feces result is given as “less than 1%”. For the same molecule, in series [1] (share of dose), the excretion via lung is reported as 12.9%; the excretion via urine was 2.4%; the “rest of the dose metabolized and retained in tissues” value is 83.9%. Further, the toxicity symptoms entry in series [2] (ingestion of large amounts in preclinical studies) is “common cholinergic symptoms (salivation, lacrimation, urination, defecation, and vomiting)”. Further, in series [2] (reported cases), the overdoses entry is on record as “no reported cases of overdoses”. In addition, the tolerability result in series [3] (mammals) is given as “well tolerated”.
Consider `CN(CC(=O)O)C(=N)N` [Creatine, creatine], for which the tolerability entry in series [3] (humans) is listed as “well tolerated at relatively high doses”.
`CC(=O)OC[C@H]1O[C@@H](n2ccc(=O)[nH]c2=O)[C@H](OC(C)=O)[C@@H]1OC(C)=O` [triacetyl uridine]: the tolerability result in series [3] (in vivo) is recorded as “well tolerated”.
As to `O=c1ccn([C@@H]2O[C@H](CO)[C@@H](O)[C@H]2O)c(=O)[nH]1` [uridine], the tolerability result in series [3] (humans) and in series [3] (mammals) was “well tolerated” each time.
